Legend:
corn = assay: Test A postemergence; type: in vivo, Zea mays
Method in brief: (§1)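 Seeds were sown in a loam soil–sand blend and given a directed soil spray preemergence; postemergence plants at 2–10 cm, one- to two-leaf stage, were sprayed with compound in non-phytotoxic solvent with surfactant. After about 10 days in a greenhouse, injury was visually rated against untreated controls (0 = no effect, 100 = complete control).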

crabgrass, large [1] = assay: Test A postemergence; type: in vivo, Digitaria sanguinalis
Method in brief: as §1

wheat = assay: Test A preemergence; type: in vivo, Triticum aestivum; conditions: preemergence; for Wheat plant response rating (0 to 100 scale): visual injury approx. 10 days after treatment
Method in brief: as §1

crabgrass, large [2] = assay: Test A preemergence; type: in vivo, Digitaria sanguinalis; conditions: preemergence; for Crabgrass, Large plant response rating (0 to 100 scale): visual injury approx. 10 days after treatment
Method in brief: as §1

pigweed = assay: Test A postemergence; type: in vivo, Amaranthus retroflexus
Method in brief: as §1

velvetleaf = assay: Test A postemergence; type: in vivo, Abutilon theophrasti
Method in brief: as §1

ducksalad = assay: Test B flood; type: in vivo, Heteranthera limosa; conditions: 250 g ai/ha, visual rating on 0 to 100 scale (0 no effect, 100 complete control), 13 to 15 days
Method in brief: (§2)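 Two-leaf-stage plants, pots flooded (3 cm above soil) and treated through the water, which stayed at that depth. After 13–15 days in greenhouse conditions, visual assessment versus controls: 0 is no effect, 100 complete control, dash means no result.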

sedge, umbrella = assay: Test B flood; type: in vivo, Cyperus difformis; conditions: 250 g ai/ha, visual rating on 0 to 100 scale (0 no effect, 100 complete control), 13 to 15 days
Method in brief: as §2

rice = assay: Test B flood; type: in vivo, Oryza sativa; conditions: 250 g ai/ha, visual rating on 0 to 100 scale (0 no effect, 100 complete control), 13 to 15 days
Method in brief: as §2

nutsedge, yellow = assay: Test C preemergence; type: in vivo, Cyperus esculentus; conditions: preemergence; for Plant response rating, Nutsedge, Yellow: 125 g ai/ha, scale 0 to 100, 0 = no effect, 100 = complete control
Method in brief: (§3)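 Visual control ratings on a 0–100 scale (100 = complete control) made against untreated controls after 13 to 15 days in greenhouse. Compounds applied in surfactant-containing solvent mixture, either preemergence to loam/sand-sown seeds or postemergence to 1- to 4-leaf plants (2–18 cm) in peat medium.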

morningglory [3] = assay: Test C preemergence; type: in vivo, Ipomoea coccinea; conditions: preemergence; for Plant response rating, Morningglory: 125 g ai/ha, scale 0 to 100, 0 = no effect, 100 = complete control
Method in brief: as §3

barnyardgrass = assay: Test A postemergence; type: in vivo, Echinochloa crus-galli
Method in brief: as §1

ragweed = assay: Test C preemergence; type: in vivo, Ambrosia elation; conditions: preemergence; for Plant response rating, Ragweed: 125 g ai/ha, scale 0 to 100, 0 = no effect, 100 = complete control
Method in brief: as §3

blackgrass = assay: Test C preemergence; type: in vivo, Alopecurus myosuroides; conditions: preemergence; for Plant response rating, Blackgrass: 125 g ai/ha, scale 0 to 100, 0 = no effect, 100 = complete control
Method in brief: as §3

morningglory [4] = assay: Test A preemergence; type: in vivo, Ipomoea spp.; conditions: preemergence; for Morningglory plant response rating (0 to 100 scale): visual injury approx. 10 days after treatment
Method in brief: as §1

[5] = Postemergence, 500 g ai/ha, 0 to 100 scale (0 no effect, 100 complete control)
[6] = postemergence, 125 g ai/ha, about 10 days, visual rating on 0 to 100 scale (0 no effect, 100 complete control)
[7] = 125 g ai/ha, visual injury, 0 to 100 scale, approx. 10 days
[8] = 500 g ai/ha, visual injury after approx. 10 days, 0 to 100 scale (0 no effect, 100 complete control)
[9] = 31 g ai/ha, visual rating, scale 0 to 100 (0 no effect, 100 complete control), 13 to 15 days
[10] = 62 g ai/ha, scale 0 to 100 (0 no effect, 100 complete control), 13 to 15 days
[11] = 250 g ai/ha, scale 0 to 100, 0 is no effect, 100 is complete control
[12] = Postemergence, 125 g ai/ha, 0 to 100 scale, 0 no effect, 100 complete control

| Compound | Corn plant response rating (corn; [5]) | Corn plant response rating (corn; [6]) | Crabgrass, Large plant response rating (crabgrass, large [1]; [5]) | Crabgrass, Large plant response rating (crabgrass, large [1]; [6]) | Wheat plant response rating (wheat; [8]) | Crabgrass, Large plant response rating (crabgrass, large [2]; [8]) | Pigweed plant response rating (pigweed; [5]) | Velvetleaf plant response rating (velvetleaf; [5]) | Plant response rating, Ducksalad (ducksalad) | Plant response rating, Sedge, Umbrella (sedge, umbrella) | Plant response rating, Rice (rice) | Nutsedge, Yellow plant response rating (nutsedge, yellow; [9]) | Nutsedge, Yellow plant response rating (nutsedge, yellow; [10]) | Plant response rating, Nutsedge, Yellow (nutsedge, yellow; 13 to 15 days) | Nutsedge, Yellow plant response rating (nutsedge, yellow; [11]) | Morningglory plant response rating (morningglory [3]; [9]) | Morningglory plant response rating (morningglory [3]; [10]) | Plant response rating, Morningglory (morningglory [3]; 13 to 15 days) | Morningglory plant response rating (morningglory [3]; [11]) | Barnyardgrass plant response rating (barnyardgrass; [5]) | further results |
| --- | --- | --- | --- | --- | --- | --- | --- | --- | --- | --- | --- | --- | --- | --- | --- | --- | --- | --- | --- | --- | --- |
| O=C(NCC(F)(F)F)c1cc(CCCl)n(Cc2ccnc(C(F)(F)F)c2)n1 [Compound 143] | 90 | 60 | 90 | 90 | 100 | 100 | 100 | 90 | 100 | 95 | 25 | 30 | 40 | 80 | 90 | 100 | 100 | 100 | 100 | 90 | Wheat plant response rating (wheat; [7]): 70; Crabgrass, Large plant response rating (crabgrass, large [2]; [7]): 100; Pigweed plant response rating (pigweed; [6]): 100; Velvetleaf plant response rating (velvetleaf; [6]): 80; Barnyardgrass plant response rating (barnyardgrass; [6]): 60; Ragweed plant response rating (ragweed; [9]): 98; Ragweed plant response rating (ragweed; [10]): 98; Plant response rating, Ragweed (ragweed; 13 to 15 days): 95; Ragweed plant response rating (ragweed; [11]): 100; Blackgrass plant response rating (blackgrass; [9]): 85; Blackgrass plant response rating (blackgrass; [10]): 85; Plant response rating, Blackgrass (blackgrass; 13 to 15 days): 90; Blackgrass plant response rating (blackgrass; [11]): 90; Morningglory plant response rating (morningglory [4]; [7]): 100; Morningglory plant response rating (morningglory [4]; [8]): 100 |
| CCCNC(=O)c1cc(CCCl)n(Cc2ccnc(C(F)(F)F)c2)n1 [Compound 145] | 90 | 60 | 90 | 90 | 100 | 100 | 100 | 100 | 100 | 95 | 25 | 10 | 75 | 60 | 90 | 80 | 100 | 100 | 100 | 90 | Wheat plant response rating (0 to 100 scale) (wheat; 125 g ai/ha): 40; Crabgrass, Large plant response rating (0 to 100 scale) (crabgrass, large [2]; 125 g ai/ha): 100; Pigweed plant response rating (pigweed; [6]): 100; Velvetleaf plant response rating (velvetleaf; [6]): 70; Barnyardgrass plant response rating (barnyardgrass; [6]): 60; Ragweed plant response rating (ragweed; [9]): 75; Ragweed plant response rating (ragweed; [10]): 95; Plant response rating, Ragweed (ragweed; 13 to 15 days): 95; Ragweed plant response rating (ragweed; [11]): 98; Blackgrass plant response rating (blackgrass; [9]): 70; Blackgrass plant response rating (blackgrass; [10]): 85; Plant response rating, Blackgrass (blackgrass; 13 to 15 days): 90; Blackgrass plant response rating (blackgrass; [11]): 90; Morningglory plant response rating (0 to 100 scale) (morningglory [4]; 125 g ai/ha): 100; Morningglory plant response rating (morningglory [4]; [8]): 100 |
| CCNC(=O)c1cc(CCCl)n(Cc2ccnc(C(F)(F)F)c2)n1 [Compound 179] | 90 | 50 | 90 | 90 | 100 | 100 | 100 | 100 | 100 | 80 | 0 | 10 | 15 | 75 | 85 | 85 | 95 | 100 | 100 | 90 | Wheat plant response rating (0 to 100 scale) (wheat; 125 g ai/ha): 10; Crabgrass, Large plant response rating (0 to 100 scale) (crabgrass, large [2]; 125 g ai/ha): 100; Pigweed plant response rating (pigweed; [6]): 100; Velvetleaf plant response rating (velvetleaf; [6]): 70; Barnyardgrass plant response rating (barnyardgrass; [6]): 70; Ragweed plant response rating (ragweed; [9]): 90; Ragweed plant response rating (ragweed; [10]): 98; Plant response rating, Ragweed (ragweed; 13 to 15 days): 98; Ragweed plant response rating (ragweed; [11]): 98; Blackgrass plant response rating (blackgrass; [9]): 5; Blackgrass plant response rating (blackgrass; [10]): 40; Plant response rating, Blackgrass (blackgrass; 13 to 15 days): 90; Blackgrass plant response rating (blackgrass; [11]): 95; Morningglory plant response rating (0 to 100 scale) (morningglory [4]; 125 g ai/ha): 80; Morningglory plant response rating (morningglory [4]; [8]): 100 |
| CCCc1cc(C(=O)NOCC)nn1Cc1ccnc(C(F)(F)F)c1 [Compound 185] | 90 | 0 | 90 | 80 | 90 | 100 | 100 | 100 | 50 | 80 | 10 | 5 | 40 | 75 | 75 | 15 | 75 | 85 | 98 | 90 | Wheat plant response rating (0 to 100 scale) (wheat; 125 g ai/ha): 70; Crabgrass, Large plant response rating (0 to 100 scale) (crabgrass, large [2]; 125 g ai/ha): 100; Pigweed plant response rating (pigweed; [12]): 60; Velvetleaf plant response rating (velvetleaf; [12]): 10; Barnyardgrass plant response rating (barnyardgrass; [6]): 80; Ragweed plant response rating (ragweed; [9]): 5; Ragweed plant response rating (ragweed; [10]): 75; Plant response rating, Ragweed (ragweed; 13 to 15 days): 95; Ragweed plant response rating (ragweed; [11]): 100; Blackgrass plant response rating (blackgrass; [9]): 5; Blackgrass plant response rating (blackgrass; [10]): 10; Plant response rating, Blackgrass (blackgrass; 13 to 15 days): 90; Blackgrass plant response rating (blackgrass; [11]): 80; Morningglory plant response rating (0 to 100 scale) (morningglory [4]; 125 g ai/ha): 40; Morningglory plant response rating (morningglory [4]; [8]): 90 |
| CCOc1cc(C(=O)NC(C)C)nn1Cc1ccnc(C(F)(F)F)c1 [Compound 188] | 100 | 90 | 90 | 90 | 100 | 100 | 100 | 100 | 90 | 90 | 60 | 30 | 65 | 95 | 98 | 98 | 98 | 98 | 100 | 90 | Wheat plant response rating (0 to 100 scale) (wheat; 125 g ai/ha): 100; Crabgrass, Large plant response rating (0 to 100 scale) (crabgrass, large [2]; 125 g ai/ha): 100; Pigweed plant response rating (pigweed; [12]): 100; Velvetleaf plant response rating (velvetleaf; [12]): 100; Barnyardgrass plant response rating (barnyardgrass; [6]): 90; Ragweed plant response rating (ragweed; [9]): 75; Ragweed plant response rating (ragweed; [10]): 95; Plant response rating, Ragweed (ragweed; 13 to 15 days): 100; Ragweed plant response rating (ragweed; [11]): 98; Blackgrass plant response rating (blackgrass; [9]): 90; Blackgrass plant response rating (blackgrass; [10]): 90; Plant response rating, Blackgrass (blackgrass; 13 to 15 days): 90; Blackgrass plant response rating (blackgrass; [11]): 90; Morningglory plant response rating (0 to 100 scale) (morningglory [4]; 125 g ai/ha): 100; Morningglory plant response rating (morningglory [4]; [8]): 100 |

Reference: patent US20150105252A1, “SUBSTITUTED PYRAZOLES AS HERBICIDES” (E I DU PONT DE NEMOURS AND COMPANY, priority 2013, published 2015)
